What all share (test): MIC determination, isogenic E. coli strains
Holding throughout (format): cell-based

One experiment concerns E. coli J53 Alone. To be noted: for MIC: Escherichia coli, J53ALONE, 18 h, read-out: Mimimum Inhibitory Concentrations, J53 Alone; for Mimimum Inhibitory Concentrations, J53 Alone: CAMH broth, 20 μM Apo-Transferrin, 37° C., 18 hours. As to the method: (§1) Sterile technique was used throughout these experiments. Suspensions of organisms were removed from storage (−80° C.) and partially thawed. Partially thawed organisms (1 μL) were inoculated into 3 mL sterile LB Broth in a sterile culture tube and capped, then cultured at 37° C. with shaking for 4-5 hours until the optical density at 600 nm (OD600) was greater than 0.1 on a single beam spectrophotometer.
(§2) The concentration of organisms was adjusted to 0.08-0.1 OD600 (0.5 McFarland units) by dilution with sterile cation-adjusted Meuller-Hinton (CAMH) broth. The suspensions were used within 30 minutes of preparation.
(§3) A stock solution was made of each test compound by measuring 6.4 mg of the compound on an analytical balance and dissolving it in DMSO (1 mL) to get a transparent solution. The solutions were stored at −20° C. and thawed prior to use.
(§4) Sterile CAMH broth (200 μL) containing 20 μM Apo-Transferrin was pipetted into the first row of 8 columns of a sterile, round-bottomed, transparent, 96-well microplate using an 8-channel pipette equipped with sterile tips. One hundred μL was pipetted into the wells of the remaining 11 rows.
(§5) With an 8-channel pipette equipped with sterile tips, 100 μL of the first row solution was transferred to the second row and mixed. The process was repeated for the second to third rows and continued through row 11. One hundred μL from row 11 was removed and discarded so that all 12 rows contained 100 μL. Row 12 contained no compound and rows 1-11 contained 64, 32, 16, 8, 4, 2, 1, 0.5, 0.25, 0.125, […] of a given compound.
(§6) Inoculant suspensions (0.5 μL) were added to the 12 wells of each column. The plates were then covered and incubated at 37° C. overnight for 18 hours.
(§7) For each organism the MIC was determined by identifying the transparent well with the lowest test compound concentration.
(§8) The gene sequence for each beta-lactamase enzyme was synthesized and inserted into the pBC-SK(+) plasmid by GenScript, a commercial service. E. coli J53 was transformed with each plasmid via electroporation and resistant transformants were selected on agar plates containing 50 micrograms/mL ampicillin. The selected transformants were stored at −80 degrees C. in 20% glycerol.

The subject of experiment [1] is Isogenic E. coli J58 strain carrying DHA-1. To be noted: for MIC: Escherichia coli, 18 h, read-out: Mimimum Inhibitory Concentrations, DHA-1. As to the method:
as §1, §2, §3, §4, §5, §6, §7, §8

For experiment [2], the system named is Isogenic E. coli J58 strain carrying CTX-M-14. The note with it: for MIC: Escherichia coli, 18 h, read-out: Mimimum Inhibitory Concentrations, CTX-M-14. As to the method:
as §1, §2, §3, §4, §5, §6, §7
(§9) CTX-M-14 and CTX-M-15 (Class A, Group 2be beta-lactamases, hydrolyzes extended spectrum cephalosporins and monobactams);
as §8

Experiment [3] has as its system Isogenic E. coli J58 strain carrying CTX-M-15. The note with it: for MIC: Escherichia coli, 18 h, read-out: Mimimum Inhibitory Concentrations, CTX-M-15. As for the experimental part:
as §1, §2, §3, §4, §5, §6, §7, §9, §8

The test system of experiment [4] is Isogenic E. coli J58 strain carrying TEM-26. The note with it: for MIC: Escherichia coli, 18 h, read-out: Mimimum Inhibitory Concentrations, TEM-26. As to the method:
as §1, §2, §3, §4, §5, §6, §7
TEM-26 (Group 2be beta-lactamase, hydrolyzes extended spectrum cephalosporins and monobactams), [25];
as §8

In experiment [5] the test system is Isogenic E. coli J58 strain carrying VIM-2. The note with it: for MIC: Escherichia coli, 18 h, read-out: Mimimum Inhibitory Concentrations, VIM-2. As for the experimental part:
as §1, §2, §3, §4, §5, §6, §7
VIM-2 (Group 3a carbapenemase, metallo-beta-lactamase); and
as §8

Experiment [6] has as its system Isogenic E. coli J58 strain carrying NDM-1. To be noted: for MIC: Escherichia coli, 18 h, read-out: Mimimum Inhibitory Concentrations, NDM-1. As for the experimental part: as §1, §2, §3, §4, §5, §6, §7
NDM-1 (Group 3a carbapenemase, broad spectrum divalent Zn^++ metallo-Beta-Lactamase);
as §8

Experiment [7] deals with Isogenic E. coli J58 strain carrying SHV-1. To be noted: for MIC: Escherichia coli, 18 h, read-out: Mimimum Inhibitory Concentrations, SHV-1. As for the experimental part:
as §1, §2, §3, §4, §5, §6, §7
SHV-1 (Class A, Group 2b beta-lactamase, hydrolyzes penicillins and early cephalosporins);
as §8

Experiment [8] has as its system Isogenic E. coli J58 strain carrying KPC-2. The note with it: for MIC: Escherichia coli, 18 h, read-out: Mimimum Inhibitory Concentrations, KPC-2. As to the method: as §1, §2, §3, §4, §5, §6, §7
(§10) KPC-2 and KPC-3 (Class A, Group 2f, carbapenemases);
as §8

Experiment [9] has as its system Isogenic E. coli J58 strain carrying KPC-3. To be noted: for MIC: Escherichia coli, 18 h, read-out: Mimimum Inhibitory Concentrations, KPC-3. As for the experimental part:
as §1, §2, §3, §4, §5, §6, §7, §10, §8

Experiment [10] has as its system Isogenic E. coli J58 strain carrying IMP-1. To be noted: for MIC: Escherichia coli, 18 h, read-out: Mimimum Inhibitory Concentrations, IMP-1. As to the method:
as §1, §2, §3, §4, §5, §6, §7
IMP-1 (Group 3a carbapenemase, metallo-beta-Lactamase).
as §8

`CC(C)(O/N=C(\C(=O)N[C@@H]1C(=O)N2C(C(=O)O)=C(/C=C/c3ccc(C[n+]4ccn(-c5ccc(O)c(O)c5)c4)cc3)CS[C@H]12)c1csc(N)n1)C(=O)O` [Compound 414, 3-(4-((E)-2-((6R,7R)-7-((Z)-2-(2-aminothiazol-4-yl)-2-(((2-carboxypropan-2-yl)oxy)imino)acetamido)-2-carboxy-8-oxo-5-thia-1-azabicyclo[4.2.0]oct-2-en-3-yl)vinyl)benzyl)-1-(3,4-dihydroxyphenyl)-1H-imidazol-3-ium]: the MIC with E. coli J53 Alone worked out at 0.25 µg/mL; in experiment [1], 0.5 µg/mL; in experiment [2], 2 µg/mL; in experiment [3] it was 1 µg/mL; in experiment [4] it was 1 µg/mL; in [5] it was 1 µg/mL. The MIC in experiment [6] was more than 64 µg/mL; in [7] it was 1 µg/mL; in [8] it was 8 µg/mL; in experiment [9], 4 µg/mL; in experiment [10] it was 8 µg/mL. In addition, the “Mimimum Inhibitory Concentrations, J53 Alone” value in the experiment with E. coli J53 Alone (Table 4-2) turned out to be 0.25 microgram/mL.
As to `CC(C)(O/N=C(\C(=O)N[C@@H]1C(=O)N2C(C(=O)O)=C(C=Cc3ccc(C[N+]4(C)CCc5cc(O)c(O)cc5C4)cc3)CS[C@H]12)c1nsc(N)n1)C(=O)O` (mixture of isomers) [Compound 437, 2-(4-((E/Z)-2-((6R,7R)-7-((Z)-2-(5-amino-1,2,4-thiadiazol-3-yl)-2-(((2-carboxypropan-2-yl)oxy)imino)acetamido)-2-carboxy-8-oxo-5-thia-1-azabicyclo[4.2.0]oct-2-en-3-yl)vinyl)benzyl)-6,7-dihydroxy-2-methyl-1,2,3,4-tetrahydroisoquinolin-2-ium], the “Mimimum Inhibitory Concentrations, J53 Alone” value in the experiment on E. coli J53 Alone (Table 4-1) and with E. coli J53 Alone (Table 4-2) was 0.25 microgram/mL throughout. Also, the “Mimimum Inhibitory Concentrations, DHA-1” value in [1] (isogenic E. coli strain, DHA-1, CAMH broth, 20 μM Apo-Transferrin, 37° C., 18 hours) was found to be 0.5 microgram/mL. The “Mimimum Inhibitory Concentrations, CTX-M-14” value in [2] (isogenic E. coli strain, CTX-M-14, CAMH broth, 20 μM Apo-Transferrin, 37° C., 18 hours) came to 4 microgram/mL. In addition, the “Mimimum Inhibitory Concentrations, CTX-M-15” value in experiment [3] (isogenic E. coli strain, CTX-M-15, CAMH broth, 20 μM Apo-Transferrin, 37° C., 18 hours) was determined as 0.5 microgram/mL. In addition, the “Mimimum Inhibitory Concentrations, TEM-26” value in experiment [4] (isogenic E. coli strain, TEM-26, CAMH broth, 20 μM Apo-Transferrin, 37° C., 18 hours) amounted to 1 microgram/mL. Besides, in experiment [5] (isogenic E. coli strain, VIM-2, CAMH broth, 20 μM Apo-Transferrin, 37° C., 18 hours), the “Mimimum Inhibitory Concentrations, VIM-2” value came to 1 microgram/mL. Besides, the “Mimimum Inhibitory Concentrations, NDM-1” value in [6] (isogenic E. coli strain, NDM-1, CAMH broth, 20 μM Apo-Transferrin, 37° C., 18 hours) is reported as more than 64 microgram/mL. In addition, the “Mimimum Inhibitory Concentrations, SHV-1” value in experiment [7] (isogenic E. coli strain, SHV-1, CAMH broth, 20 μM Apo-Transferrin, 37° C., 18 hours) was found to be 2 microgram/mL. Moreover, in [8] (isogenic E. coli strain, KPC-2, CAMH broth, 20 μM Apo-Transferrin, 37° C., 18 hours), the “Mimimum Inhibitory Concentrations, KPC-2” value was found to be 16 microgram/mL. For the same molecule, the “Mimimum Inhibitory Concentrations, KPC-3” value in experiment [9] (isogenic E. coli strain, KPC-3, CAMH broth, 20 μM Apo-Transferrin, 37° C., 18 hours) stood at 2 microgram/mL. Moreover, in experiment [10] (isogenic E. coli strain, IMP-1, CAMH broth, 20 μM Apo-Transferrin, 37° C., 18 hours), the “Mimimum Inhibitory Concentrations, IMP-1” value was found to be 0.13 microgram/mL. Also, the “MICs for an E. coli strain carrying the gene for carbapenemase IMP-1, in words” value in experiment [10] (review of Tables 4-1 and 4-2) is “low microgram/mL MICs”.
`Cn1c[n+](Cc2ccc(C=CC3=C(C(=O)O)N4C(=O)[C@@H](NC(=O)/C(=N\OC(C)(C)C(=O)O)c5csc(N)n5)[C@H]4SC3)cc2)c2cc(O)c(O)cc21` (mixture of isomers) [Compound 415, 3-(4-((E/Z)-2-((6R,7R)-7-((Z)-2-(2-aminothiazol-4-yl)-2-(((2-carboxypropan-2-yl)oxy)imino)acetamido)-2-carboxy-8-oxo-5-thia-1-azabicyclo[4.2.0]oct-2-en-3-yl)vinyl)benzyl)-5,6-dihydroxy-1-methyl-1H-benzo[d]imidazol-3-ium]: the MIC came to 0.5 µg/mL with E. coli J53 Alone; 0.5 µg/mL in experiment [1]; 2 µg/mL in [2]; 1 µg/mL in [3]; 1 µg/mL in [4]; 1 µg/mL in [5]. The MIC in experiment [6] was more than 64 µg/mL; in [7], 1 µg/mL; in experiment [8], 16 µg/mL; in experiment [9], 8 µg/mL; in experiment [10], 16 µg/mL. The “Mimimum Inhibitory Concentrations, J53 Alone” value with E. coli J53 Alone (Table 4-2) came out at 0.5 microgram/mL.
In the case of `COc1cc[n+](Cc2ccc(C=CC3=C(C(=O)O)N4C(=O)[C@@H](NC(=O)/C(=N\OC(C)(C)C(=O)O)c5csc(N)n5)[C@H]4SC3)cc2)cc1OC` (mixture of isomers) [Compound 402, 1-(4-((E/Z)-2-((6R,7R)-7-((Z)-2-(2-aminothiazol-4-yl)-2-(((2-carboxypropan-2-yl)oxy)imino)acetamido)-2-carboxy-8-oxo-5-thia-1-azabicyclo[4.2.0]oct-2-en-3-yl)vinyl)benzyl)-3,4-dimethoxypyridin-1-ium], the MIC in the experiment with E. coli J53 Alone is 0.5 µg/mL; in experiment [1], 1 µg/mL; in experiment [2], 4 µg/mL; in experiment [3] it was more than 64 µg/mL; in experiment [4] it was 4 µg/mL; in experiment [5], 4 µg/mL. Besides, the MIC in experiment [6] is more than 64 µg/mL; in experiment [7], 2 µg/mL; in experiment [8], 64 µg/mL; in [9] it was 16 µg/mL; in [10], more than 64 µg/mL. For the same molecule, the “Mimimum Inhibitory Concentrations, J53 Alone” value in the experiment with E. coli J53 Alone (Table 4-2) is on record as 0.5 microgram/mL.
Consider `CC(C)(O/N=C(\C(=O)N[C@@H]1C(=O)N2C(C(=O)O)=C(C=Cc3ccc(C[N+]4(C)CCc5c(ccc(O)c5O)C4)cc3)CS[C@H]12)c1csc(N)n1)C(=O)O` (mixture of isomers) [Compound 441, 2-(4-((E/Z)-2-((6R,7R)-7-((Z)-2-(2-aminothiazol-4-yl)-2-(((2-carboxypropan-2-yl)oxy)imino)acetamido)-2-carboxy-8-oxo-5-thia-1-azabicyclo[4.2.0]oct-2-en-3-yl)vinyl)benzyl)-5,6-dihydroxy-2-methyl-1,2,3,4-tetrahydroisoquinolin-2-ium], for which the MIC was found to be 0.25 µg/mL in the experiment with E. coli J53 Alone; 0.5 µg/mL in [1]; 1 µg/mL in experiment [2]; 0.5 µg/mL in experiment [3]; 1 µg/mL in experiment [4]; 0.25 µg/mL in experiment [5]. Moreover, the MIC in [6] was more than 64 µg/mL; in experiment [7] it was 1 µg/mL; in experiment [8], 4 µg/mL; in experiment [9], 1 µg/mL; in [10], 1 µg/mL. The “Mimimum Inhibitory Concentrations, J53 Alone” value in the experiment on E. coli J53 Alone (Table 4-2) was 0.25 microgram/mL.
